Laboratory results reported in patent US5444063A, “Enantiomerically pure β-D-dioxolane nucleosides with selective anti-Hepatitis B virus activity” (priority 1992, dated 1995).
“And” between values parts separate entries of the source, which are not always exact repeats. Identical values can stand only once. Like-named read-outs stand apart in the source and are kept apart here.

Tests used:
[1] = Toxicity analysis of test compounds in 2.2.15 cells (neutral red dye uptake); format: cell-based; details: human
Experimental: Toxicity analyses were performed in order to assess whether any observed antiviral effects are due to a general effect on cell viability. The method used was based on the uptake of neutral red dye, a standard and widely used assay for cell viability in a variety of virus-host systems, including HSV (herpes simplex virus) and HIV. Details of the procedure are provided in the toxicity table legends.
The test compounds were used in the form of 40 mM stock solutions in DMSO (frozen on dry ice). Daily aliquots of the test samples were made and frozen at -20° C. so that each individual aliquot would be subjected to a single freeze-thaw cycle. The daily test aliquots were thawed, suspended into culture medium at room temperature and immediately added to the cell cultures° The compounds were tested at 0.0 and 1 μM for antiviral activity. The compounds were tested for toxicity at concentrations up to 300 μM.
Toxicity analyses were performed in 96-well flat bottomed tissue culture plates. Cells for the toxicity analyses were cultured and treated with test compounds with the same schedule as used for the antiviral evaluations. Each compound was tested at 4 concentrations, each in triplicate cultures. Uptake of neutral red dye was used to determine the relative level of toxicity. The absorbance of internalized dye at […] (A510) was used for the quantitative analysis. Values are presented as a percentage of the average A510 values (±standard deviations) in 9 separate cultures of untreated cells maintained on the same 96-well plate as the test compounds.

[2] = tested on: HBV; assay: Effect of nucleosides on HBV production in 2.2.15 cells (HBV virion DNA and intracellular HBV DNA); format: cell-based, Hepatitis B virus; details: for HBV virion DNA, day 0 / HBV virion DNA, day 3 / HBV virion DNA, day 6 / HBV virion DNA, day 9: individual culture; for HBV virion DNA, day 0, mean / HBV virion DNA, day 3, mean / HBV virion DNA, day 6, mean / HBV virion DNA, day 9, mean / Intracellular HBV DNA on Day 10, Mono, mean / Intracellular HBV DNA on Day 10, RI, mean: mean of 4 cultures; for inhibition at 1 µM / inhibition: Hepatitis B virus
Experimental: The ability of β-D-dioxolane-nucleosides to inhibit HBV can be measured by various experimental techniques. The assay used herein to evaluate the ability of the disclosed compounds to inhibit the replication of HBV is described in detail in Korba and Gerin, Antiviral Res. 19:55-70 (1992). […] The other compounds disclosed herein are evaluated similarly.
The antiviral evaluations were performed on two separate passages of cells, two cultures per passage (4 cultures total). All wells, in all plates, were seeded at the same density and at the same time.
Due to the inherent variations in the levels of both intracellular and extracellular HBV DNA, only depressions greater than 3.0-fold (for HBV virion DNA) or 2.5-fold (for HBV DNA replication intermediates) from the average levels for these HBV DNA forms in untreated cells are generally considered to be statistically significant [P<0.05] (Korba and Gerin, Antiviral Res. 19: 55-70, 1992). The levels of integrated HBV DNA in each cellular DNA preparation (which remain constant on a per cell basis in these experiments) were used to calculate the levels of intracellular HBV DNA forms, thereby eliminating technical variations inherent in the blot hybridization assays.
The test compounds were used in the form of 40 mM stock solutions in DMSO (frozen on dry ice). Daily aliquots of the test samples were made and frozen at -20° C. so that each individual aliquot would be subjected to a single freeze-thaw cycle. […] The compounds were tested for toxicity at concentrations up to 300 μM.

[3] = 0.1 μM, listed as (-)- -2,6-dioxolane-G
[4] = 1.0 μM ("1.0 M" printed for the 2,6-DiNH2 compound), listed as (-)- -2,6-dioxolane-G
[5] = 1.0 μM ("1.0 M" printed for the 2,6-DiNH2 compound)
[6] = 0 h, 1.0 μM ("1.0 M" printed for the 2,6-DiNH2 compound), read-out: % inhibition, HBV virion DNA, day 0
[7] = 0 h, read-out: % inhibition, HBV virion DNA, day 0
[8] = 72 h, 1.0 μM ("1.0 M" printed for the 2,6-DiNH2 compound), read-out: % inhibition, HBV virion DNA, day 3
[9] = 72 h, read-out: % inhibition, HBV virion DNA, day 3
[10] = 144 h, 1.0 μM ("1.0 M" printed for the 2,6-DiNH2 compound), read-out: % inhibition, HBV virion DNA, day 6
[11] = 144 h, read-out: % inhibition, HBV virion DNA, day 6
[12] = 216 h, 1.0 μM ("1.0 M" printed for the 2,6-DiNH2 compound), read-out: % inhibition, HBV virion DNA, day 9
[13] = 216 h, read-out: % inhibition, HBV virion DNA, day 9
[14] = 240 h, 1.0 μM ("1.0 M" printed for the 2,6-DiNH2 compound), read-out: % inhibition, intracellular HBV DNA Mono, Day 10
[15] = 240 h, 1.0 μM ("1.0 M" printed for the 2,6-DiNH2 compound), read-out: % inhibition, intracellular HBV DNA RI, Day 10
[16] = 240 h, read-out: % inhibition, intracellular HBV DNA Mono, Day 10
[17] = 240 h, read-out: % inhibition, intracellular HBV DNA RI, Day 10
[18] = 0.1 μM, listed as (-)- -2,6-diNH2-purine-dioxolane
[19] = 1.0 μM ("1.0 M" printed for the 2,6-DiNH2 compound), listed as (-)- -2,6-DiNH2-purine-dioxolane

## Nc1nc2c(ncn2[C@H]2CO[C@@H](CO)O2)c(=O)[nH]1 [Dioxolane-G, (-)-(2R,4R)-9-[(2-hydroxymethyl)-1,3-dioxolan-4-yl]guanine]
[1]
  viability at 10 µM: 100 ± 3%
  viability at 30 µM: 101 ± 2%
  viability at 100 µM: 88 ± 3%
  viability at 300 µM: 56 ± 3%
[2]; [3]
  HBV virion DNA, day 0: 51 pg/ml of cultured medium and 59 pg/ml of cultured medium and 74 pg/ml of cultured medium and 67 pg/ml of cultured medium
  HBV virion DNA, day 3: 77 pg/ml of cultured medium and 62 pg/ml of cultured medium and 73 pg/ml of cultured medium and 61 pg/ml of cultured medium
  HBV virion DNA, day 6: 60 pg/ml of cultured medium and 70 pg/ml of cultured medium and 69 pg/ml of cultured medium and 82 pg/ml of cultured medium
  HBV virion DNA, day 9: 18 pg/ml of cultured medium and 12 pg/ml of cultured medium and 14 pg/ml of cultured medium and 11 pg/ml of cultured medium
[2]; 0.1 μM
  HBV virion DNA, day 0, mean: 62.75 pg/ml of cultured medium
  HBV virion DNA, day 3, mean: 68.25 pg/ml of cultured medium
  HBV virion DNA, day 6, mean: 70.25 pg/ml of cultured medium
  HBV virion DNA, day 9, mean: 13.75 pg/ml of cultured medium
  Intracellular HBV DNA on Day 10, Mono, mean: 2.35 pg/μM of cellular DNA
  Intracellular HBV DNA on Day 10, RI, mean: 24.00 pg/μM of cellular DNA
[2]; [4]
  HBV virion DNA, day 0: 70 pg/ml of cultured medium and 50 pg/ml of cultured medium and 56 pg/ml of cultured medium and 73 pg/ml of cultured medium
  HBV virion DNA, day 3: 86 pg/ml of cultured medium and 59 pg/ml of cultured medium and 56 pg/ml of cultured medium and 62 pg/ml of cultured medium
  HBV virion DNA, day 6: 22 pg/ml of cultured medium and 24 pg/ml of cultured medium and 23 pg/ml of cultured medium and 20 pg/ml of cultured medium
[2]; 1.0 μM ("1.0 M" printed for the 2,6-DiNH2 compound), zero = undetectable, listed as (-)- -2,6-dioxolane-G
  HBV virion DNA, day 9: 2 pg/ml of cultured medium and 4 pg/ml of cultured medium and 3 pg/ml of cultured medium
[2]; [5]
  HBV virion DNA, day 0, mean: 62.25 pg/ml of cultured medium
  HBV virion DNA, day 3, mean: 66.75 pg/ml of cultured medium
  HBV virion DNA, day 6, mean: 22.25 pg/ml of cultured medium
  HBV virion DNA, day 9, mean: 2.75 pg/ml of cultured medium
  Intracellular HBV DNA on Day 10, Mono, mean: 1.85 pg/μM of cellular DNA
  Intracellular HBV DNA on Day 10, RI, mean: 4.75 pg/μM of cellular DNA
[2]; [6]
  inhibition at 1 µM: 1.19%
[2]; [7]
  inhibition: 0.4%
[2]; [8]
  inhibition at 1 µM: -1.54%
[2]; [9]
  inhibition: -5.41%
[2]; [10]
  inhibition at 1 µM: 71%
[2]; [11]
  inhibition: 8.47%
[2]; [12]
  inhibition at 1 µM: 96.3%
[2]; [13]
  inhibition: 81.5%
[2]; [14]
  inhibition at 1 µM: 26.7%
[2]; [15]
  inhibition at 1 µM: 93.5%
[2]; [16]
  inhibition: 6.93%
[2]; [17]
  inhibition: 67.3%

## Nc1nc(N)c2ncn([C@H]3CO[C@@H](CO)O3)c2n1 [DAPD, (-)-(2R,4R)-2-amino-9-[(2-hydroxymethyl)-1,3-dioxolan-4-yl]adenine]
[1]
  viability at 10 µM: 99 ± 1%
  viability at 30 µM: 99 ± 3%
  viability at 100 µM: 88 ± 1%
  viability at 300 µM: 49 ± 3%
[2]; 0.1 μM
  HBV virion DNA, day 0: 77 pg/ml of cultured medium
  HBV virion DNA, day 0, mean: 62.75 pg/ml of cultured medium
  HBV virion DNA, day 3, mean: 61.75 pg/ml of cultured medium
  HBV virion DNA, day 6, mean: 30.75 pg/ml of cultured medium
  HBV virion DNA, day 9, mean: 7.00 pg/ml of cultured medium
  Intracellular HBV DNA on Day 10, Mono, mean: 2.35 pg/μM of cellular DNA
  Intracellular HBV DNA on Day 10, RI, mean: 12.00 pg/μM of cellular DNA
[2]; [18]
  HBV virion DNA, day 0: 52 pg/ml of cultured medium and 58 pg/ml of cultured medium and 64 pg/ml of cultured medium
  HBV virion DNA, day 3: 67 pg/ml of cultured medium and 59 pg/ml of cultured medium and 62 pg/ml of cultured medium
  HBV virion DNA, day 6: 28 pg/ml of cultured medium and 34 pg/ml of cultured medium and 35 pg/ml of cultured medium and 26 pg/ml of cultured medium
  HBV virion DNA, day 9: 5 pg/ml of cultured medium and 6 pg/ml of cultured medium and 9 pg/ml of cultured medium and 8 pg/ml of cultured medium
[2]; [19]
  HBV virion DNA, day 0: 66 pg/ml of cultured medium and 70 pg/ml of cultured medium and 74 pg/ml of cultured medium and 61 pg/ml of cultured medium
  HBV virion DNA, day 3: 59 pg/ml of cultured medium and 45 pg/ml of cultured medium and 56 pg/ml of cultured medium and 43 pg/ml of cultured medium
  HBV virion DNA, day 6: 12 pg/ml of cultured medium and 10 pg/ml of cultured medium and 15 pg/ml of cultured medium and 11 pg/ml of cultured medium
[2]; 1.0 μM ("1.0 M" printed for the 2,6-DiNH2 compound), zero = undetectable, listed as (-)- -2,6-DiNH2-purine-dioxolane
  HBV virion DNA, day 9: 0 pg/ml of cultured medium and 1 pg/ml of cultured medium
[2]; [5]
  HBV virion DNA, day 0, mean: 67.75 pg/ml of cultured medium
  HBV virion DNA, day 3, mean: 50.75 pg/ml of cultured medium
  HBV virion DNA, day 6, mean: 12.00 pg/ml of cultured medium
  HBV virion DNA, day 9, mean: 0.25 pg/ml of cultured medium
  Intracellular HBV DNA on Day 10, Mono, mean: 1.15 pg/μM of cellular DNA
  Intracellular HBV DNA on Day 10, RI, mean: 2.25 pg/μM of cellular DNA
[2]; [6]
  inhibition at 1 µM: -7.54%
[2]; [7]
  inhibition: 0.4%
[2]; [8]
  inhibition at 1 µM: 21.6%
[2]; [9]
  inhibition: 4.63%
[2]; [10]
  inhibition at 1 µM: 84.4%
[2]; [11]
  inhibition: 59.9%
[2]; [12]
  inhibition at 1 µM: 99.7%
[2]; [13]
  inhibition: 90.6%
[2]; [14]
  inhibition at 1 µM: 54.5%
[2]; [15]
  inhibition at 1 µM: 96.9%
[2]; [16]
  inhibition: 6.93%
[2]; [17]
  inhibition: 83.7%
